This is an account of results in article PMC7766124, “Improved Cell Selectivity of Pseudin-2 via Substitution in the Leucine-Zipper Motif: In Vitro and In Vivo Antifungal Activity” (Antibiotics, 2020).

One assay has as its system A. fumigatus. It counts as cell-based, A. fumigatus (KCTC 6145). The settings on record: 36 h. An excerpt:
(§1) Aspergillus flavus (KCTC 6905), A. fumigatus (KCTC 6145), Fusarium moniliforme (KCTC 6149), F. oxysporum (KCTC 16909), C. albicans (KCTC 7270), C. krusei (CCARM 14017), C. parapsilosis (CCARM 14016), C. tropicalis (KCTC 7221), and T. beigelii (KCTC 7707) were obtained from the Korea Collection for Type Cultures (KCTC) and Culture Collection of Antimicrobial Resistant Microbes (CCARM). Mold and yeast fungi were pre-grown on potato dextrose (PD) and yeast extract peptone dextrose (YPD) agars, respectively.
(§2) Antifungal activity of peptides was performed by microtiter plate assays. Fungal conidia from four-day-old molds were collected using 0.08% Triton X-100 (v/v), and pre-cultivated yeast cells were adjusted to 2 × 10^4 spores/mL in 10 mM sodium phosphate buffer (SP, pH 7.2) or 10 mM 2-(N-morpholino)ethanesulfonic acid (MES) buffer (pH 5.5) supplemented with 20% culture medium, followed by addition to peptide solutions (0.25, 0.5, 1, 1.5, 2, 4, 6, 8, 12, 16, 32, 48, and 64 µM) in 96-well microtiter plates. After incubation for 36 h at 28 °C, the hyphal growth of conidia and the proliferation of yeast cells were observed under a light microscope. All assays were performed in triplicate. The MIC values were defined as the lowest concentration of samples that reduced fungal germination (for mold) or cell proliferation (for yeast) by more than 90% [34].

The test system of a further assay is A. flavus. It counts as cell-based, Aspergillus flavus (KCTC 6905). The settings on record: 36 h.
Description: as §1, §2

The subject of another assay is F. oxysporum. In kind it is cell-based, F. oxysporum (KCTC 16909). The settings on record: 36 h.
Description: as §1, §2

A further assay concerns C. albicans. In kind it is cell-based, C. albicans (KCTC 7270). The settings on record: 36 h.
Description: as §1, §2

Assay [1] relates to C. tropicalis. Put plainly: C. tropicalis skin infection mouse model. It counts as in vivo, BALB/C female mice. As to the method:
All animal experiments and procedures were performed with the approval of the Institutional Animal Care and Use Committee (IACUC) of Sunchon National University, Korea (SCNU IACUC-2019-10). BALB/C female mice (six weeks old) were obtained from Koatech Co. (Pyongtaek, Gyeonggido, Korea) and divided into three groups (n = 4): control, pseudin-2, and P2-LZ4 groups. The skin on the back of each mouse was shaved 1 h before infection, and the mice were anesthetized by inhalation of 5% (induction) and 2% (maintenance) isoflurane in pure oxygen. Mice were then subjected to subcutaneous infection with 100 µL C. tropicalis (10^7 cells/mL) by injection into the dorsum of each mouse. At 24 h after infection, 100 µL PBS, pseudin-2 (0.1 mg/mL), or P2-LZ4 (0.1 mg/mL) was injected into the same site. At four days after peptide injection, mice were euthanized by CO2 inhalation, and the infected skin tissues were excised, fixed in 4% paraformaldehyde, embedded in paraffin, stained with H&E, and observed by light microscopy.

In another assay the test system is C. parapsilosis. In kind it is cell-based, C. parapsilosis (CCARM 14016). To be noted: 36 h.
Description: as §1, §2

The test system of another assay is F. moniliforme. It counts as cell-based, Fusarium moniliforme (KCTC 6149). To be noted: 36 h.
Description: as §1, §2

Another assay has as its system T. beigelii. It counts as cell-based, T. beigelii (KCTC 7707). To be noted: 36 h.
Description: as §1, §2

The test system of assay [2] is C. tropicalis. It counts as cell-based, C. tropicalis (KCTC 7221). To be noted: 36 h.
Description: as §1, §2

Assay [3] in a line: Calcein leakage from fungus-mimic artificial vesicles. The settings on record: fungus-mimic PC/PE/PI/ergosterol vesicles, 20 μM lipid; peptide/lipid molar ratio 0.05; 100% = 0.03% Triton X-100; three independent experiments. As to the method: The permeability of peptides in calcein-entrapped artificial liposomes was assayed by measuring calcein leakage. The desired mixtures of lipids (PC/PE/PI/ergosterol, 5:4:1:2 and PC/CH/SM, 2:1:1, weight ratio) were dissolved in chloroform at 10 mg/mL, dried in a glass tube under nitrogen, and then lyophilized overnight to remove residual solvent. The dried lipid films were resuspended in 1 mL of dye solution (80 mM calcein, 10 mM HEPES buffer, pH 7.2) at 50 °C and vortexed, followed by freeze-thawing for nine cycles and extrusion with polycarbonate filters (0.2-μm pore-size) using an Avanti Mini-Extruder (Avanti Polar Lipids Inc., Alabaster, AL, USA). Free calcein was removed using PD-10 desalting columns (GE Healthcare Life Science, Seoul, Korea). Calcein-entrapped vesicles of 20 μM lipids were incubated with peptides at concentrations of […], 0.02, 0.05, and 0.1 molar ratio (peptide/lipid) and the fluorescence was assessed at 480 (Ex) and 520 (Em) nm using a microtiter SpectraMax M5 reader (Molecular Devices). Complete (100%) release was achieved by the addition of 0.03% Triton X-100 (v/v).

Assay [4] concerns Candida albicans, C. krusei, C. tropicalis, and Trichosporon beigelii. Put plainly: Antifungal microtiter plate assay (MIC), range over pathogenic yeasts. To be noted: neutral pH; range over four yeasts. In kind it is cell-based. Here is the method:
as §2

The next assay relates to C. krusei. In kind it is cell-based, C. krusei (CCARM 14017). To be noted: 36 h.
Description: as §1, §2

Assay [5] concerns C. tropicalis cells. The assay is described as follows: Mitochondrial superoxide, MitoSOX Red flow cytometry. In kind it is cell-based. To be noted: peptide at MIC for 8 h. As to the method:
Mitochondrial SOX was measured using MitoSOX Red probe. C. tropicalis cells (2 × 10^4 spores/mL) were treated with samples at the appropriate MIC for 8 h and then stained with MitoSOX Red according to the manufacturer’s instructions. The stained cells were acquired by flow cytometry (Attune NxT Acoustic Focusing Cytometer; ThermoFisher Scientific Co., Eugene, OR, USA) at 561 nm by 10,000 total events.
A general note: A flow cytometer gives signals particle by particle.

Assay [6] concerns C. tropicalis cells. Put plainly: SYTOX Green uptake (membrane permeability). In kind it is cell-based. The settings on record: SP buffer pH 7.2, 0.5 μM SYTOX Green, peptides 1-64 µM, monitored 30 min. Here is the method: C. tropicalis cells pre-grown at 28 °C were washed and suspended (2 × 10^6 cells/mL) in SP buffer (pH 7.2). The cells were pre-incubated with SYTOX Green (final concentration of 0.5 μM) for 15 min in the dark, followed by adding two-fold serial dilutions of peptides at concentrations of 1 to 64 µM. The fluorescence intensity was monitored for 30 min at 485 (Ex) and 520 (Em) nm using a microtiter SpectraMax M5 reader (Molecular Devices, San Jose, CA, USA).

Read-outs that look alike come from different tables or passages of the source. No end group written: not given here. A value given as a limit tells only on which side of the number the result lay.

In the case of GLNALKKVAQGIHEAAKLINNHVQ-NH2 [P2-LZ4], the MIC was determined as 16 µM against A. fumigatus (pH 5.5); 32 µM in the assay on A. fumigatus (pH 7.2); 16 µM in the assay on A. flavus (pH 5.5); 32 µM in the assay on A. flavus (pH 7.2); 16 µM against F. oxysporum (pH 5.5); 2 µM in the assay on F. oxysporum (pH 7.2). Moreover, the MIC against C. albicans (pH 5.5) is on record as 8 µM; in the assay with C. albicans (pH 7.2), 4 µM; with C. parapsilosis (pH 5.5), > 64 µM; in the assay on C. parapsilosis (pH 7.2) it was 48 µM; against F. moniliforme (pH 5.5), 32 (32) µM; in the assay with F. moniliforme (pH 7.2), 32 (32) µM. For the same substance, the MIC stood at 1 µM in the assay on T. beigelii (pH 5.5); 1.5 µM in the assay with T. beigelii (pH 7.2); 1 µM in the assay with C. tropicalis [2] (pH 5.5); 2 µM in the assay with C. tropicalis [2] (pH 7.2); 8 µM against C. krusei (pH 5.5); 6 µM with C. krusei (pH 7.2). In the assay on C. tropicalis [1] (100 µL of 0.1 mg/mL peptide s.c. 24 h after infection, tissues taken four days after peptide injection), the “histological evaluation of skin tissues (H&E)” value is recorded as “nearly identical to those of the PBS-treated mice”. Also, the “skin lesions (swelling and redness in the dorsal skin)” value in the assay on C. tropicalis [1] (100 µL of 0.1 mg/mL peptide s.c. 24 h after s.c. infection, monitored seven days, n = 4) was “no obvious skin lesions”. Further, the leakage of calcein in [3] is listed as 80.5%. Further, the “MICs against pathogenic yeast cells” value in assay [4] was 1.5 to 6 µM.

Take GLNALKKVKQGKHEAIKLINNHVQ-NH2 [P2-LZ5]: the MIC is given as > 64 µM against A. fumigatus (pH 5.5); 16 µM in the assay with A. fumigatus (pH 7.2); > 64 µM in the assay on A. flavus (pH 5.5); 16 µM with A. flavus (pH 7.2); 16 µM against F. oxysporum (pH 5.5); 6 µM in the assay on F. oxysporum (pH 7.2). Further, the MIC is 64 µM in the assay with C. albicans (pH 5.5); 32 µM against C. albicans (pH 7.2); >64 (>64) µM in the assay on C. parapsilosis (pH 5.5); >64 (>64) µM with C. parapsilosis (pH 7.2); 64 (>64) µM against F. moniliforme (pH 5.5); 64 (>64) µM in the assay with F. moniliforme (pH 7.2). In addition, the MIC against T. beigelii (pH 5.5) stood at 32 µM; in the assay with T. beigelii (pH 7.2), 8 µM; in the assay on C. tropicalis [2] (pH 5.5), 16 µM; against C. tropicalis [2] (pH 7.2) it was 8 µM; in the assay on C. krusei (pH 5.5) it was 16 µM; against C. krusei (pH 7.2) it was 48 µM. The “MitoSOX Red fluorescence (mitochondrial SOX)” value with C. tropicalis cells [5] is listed as “significantly increased”. For the same substance, the leakage of calcein in assay [3] is on record as 33.8%. For the same substance, the “SYTOX Green fluorescence intensity” value in the assay on C. tropicalis cells [6] is “much lower than that in the presence of the other peptides”.
